Data taken from US9233109B2, “Compositions, methods of use, and methods of treatment” (UNIVERSITY OF FLORIDA RESEARCH FOUNDATION, INC., priority 2010, dated 2016).
Read-outs that look alike come from different tables or passages of the source.

What was measured:
[1] = target: T1, HS α4β2 (α4(2)β2(3)) nAChR (Homo sapiens, UniProt P17787+P43681); experiment: Bath application of test compound: inhibition of ACh-evoked peak currents in Xenopus oocytes; assay type: cell-based
T1 construct: expressed in transfected cells; host or cells: Xenopus laevis oocytes injected with cRNA
T1 sequence (P17787 26-502): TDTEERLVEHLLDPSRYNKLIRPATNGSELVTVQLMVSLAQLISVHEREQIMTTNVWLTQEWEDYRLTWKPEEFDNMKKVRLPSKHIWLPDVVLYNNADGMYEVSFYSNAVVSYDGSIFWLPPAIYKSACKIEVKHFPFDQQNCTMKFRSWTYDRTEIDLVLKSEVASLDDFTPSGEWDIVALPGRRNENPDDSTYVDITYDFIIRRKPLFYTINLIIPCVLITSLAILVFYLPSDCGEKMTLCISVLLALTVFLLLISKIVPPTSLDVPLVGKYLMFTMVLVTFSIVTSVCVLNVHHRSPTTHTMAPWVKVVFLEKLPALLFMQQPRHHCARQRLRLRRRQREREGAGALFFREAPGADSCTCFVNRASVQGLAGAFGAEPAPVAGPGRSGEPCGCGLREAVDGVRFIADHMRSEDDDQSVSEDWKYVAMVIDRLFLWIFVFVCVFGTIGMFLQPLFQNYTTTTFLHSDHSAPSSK
T1 sequence (P43681 29-627 limits assumed): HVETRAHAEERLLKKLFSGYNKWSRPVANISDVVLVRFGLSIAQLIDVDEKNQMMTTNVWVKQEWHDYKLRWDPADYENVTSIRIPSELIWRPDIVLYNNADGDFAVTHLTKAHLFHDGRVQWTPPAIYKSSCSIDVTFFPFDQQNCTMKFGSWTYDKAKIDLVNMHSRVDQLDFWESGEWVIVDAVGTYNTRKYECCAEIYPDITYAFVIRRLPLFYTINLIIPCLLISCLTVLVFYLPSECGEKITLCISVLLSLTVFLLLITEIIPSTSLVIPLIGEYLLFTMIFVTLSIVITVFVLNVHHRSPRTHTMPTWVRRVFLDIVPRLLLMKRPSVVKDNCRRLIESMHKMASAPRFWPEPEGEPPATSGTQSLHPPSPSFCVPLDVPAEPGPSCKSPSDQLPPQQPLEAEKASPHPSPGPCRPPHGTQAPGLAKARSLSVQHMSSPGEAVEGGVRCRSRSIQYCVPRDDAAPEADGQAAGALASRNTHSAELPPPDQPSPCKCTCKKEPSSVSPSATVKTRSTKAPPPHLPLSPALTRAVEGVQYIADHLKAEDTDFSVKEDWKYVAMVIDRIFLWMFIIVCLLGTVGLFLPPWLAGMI
T1 sequence (P17787 26-502): as the sequence (P17787 26-502) above
Protocol: (§1) We have extended this approach to defined receptor subtypes expressed in Xenopus oocytes. Experiments were conducted on cells expressing HS α4β2 (α4(2)β2(3)), LS α4β2 (α4(3)β2(2)), or α7 nAChR.
(§2) cDNA: Human nAChR receptor clones and concatamers were obtained from Dr. Jon Lindstrom (University of Pennsylvania, Philadelphia Pa.). The human RIC-3 clone, obtained from Dr. Millet Treinin (Hebrew University, Jerusalem Israel), was co-injected with α7 to improve the levels and speed of receptor expression.
(§3) Oocyte preparation: Oocytes were surgically removed from mature Xenopus laevis frogs and injected with 50 nl (5-20 ng) of appropriate nAChR subunit cRNAs as described previously (Horenstein et al., 2008).
(§4) Experiments were conducted using OpusXpress 6000A (Molecular Devices, Union City Calif.) and analyzed as described previously (Papke and Papke, 2002; Horenstein et al., 2008; Papke and Stokes, 2010).
(§5) Initial experiments were run for 50 minutes after the introduction of the experimental compounds into the bath.

[2] = target: T2, LS α4β2 (α4(3)β2(2)) nAChR (Homo sapiens, UniProt P17787+P43681); experiment: as above; assay type: cell-based
T2 construct: expressed in transfected cells; host or cells: Xenopus laevis oocytes injected with cRNA
T2 sequence (P17787 26-502): as above
T2 sequence (P43681 29-627 limits assumed): as the sequence (P43681 29-627 limits assumed) above
T2 sequence (P43681 29-627 limits assumed): as above
Protocol: as §1, §2, §3, §4, §5

[3] = target: T3, α7 nAChR (Homo sapiens, UniProt P36544); experiment: Bath application of test compound: modulation of ACh-evoked net charge responses in Xenopus oocytes; assay type: cell-based
T3 construct: expressed in transfected cells; host or cells: Xenopus laevis oocytes injected with cRNA
T3 sequence (P36544 23-502): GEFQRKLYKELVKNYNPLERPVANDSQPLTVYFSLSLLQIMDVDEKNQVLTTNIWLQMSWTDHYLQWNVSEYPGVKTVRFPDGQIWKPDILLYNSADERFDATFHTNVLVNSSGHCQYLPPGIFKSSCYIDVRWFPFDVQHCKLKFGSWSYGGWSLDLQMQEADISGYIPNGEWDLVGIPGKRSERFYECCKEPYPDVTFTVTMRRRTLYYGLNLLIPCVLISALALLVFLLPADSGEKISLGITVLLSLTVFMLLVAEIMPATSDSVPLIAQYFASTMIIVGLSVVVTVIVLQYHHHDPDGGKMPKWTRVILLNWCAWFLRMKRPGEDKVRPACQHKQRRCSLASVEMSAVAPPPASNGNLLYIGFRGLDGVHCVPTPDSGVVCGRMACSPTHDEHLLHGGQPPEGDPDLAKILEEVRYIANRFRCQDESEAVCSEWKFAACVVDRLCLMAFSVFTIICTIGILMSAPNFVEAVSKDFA
Protocol: as §1, §2, §3, §4, §5

[4] = target: T4, α4(2)β2(2)α5 nAChR (Homo sapiens, UniProt P17787+P30532+P43681); experiment: Bath application of test compound: inhibition of ACh-evoked responses in Xenopus oocytes; assay type: cell-based
T4 construct: expressed in transfected cells; host or cells: Xenopus laevis oocytes injected with cRNA
T4 sequence (P17787 26-502): as the sequence (P17787 26-502) above
T4 sequence (P43681 29-627 limits assumed): as the sequence (P43681 29-627 limits assumed) above
T4 sequence (P30532 23-468): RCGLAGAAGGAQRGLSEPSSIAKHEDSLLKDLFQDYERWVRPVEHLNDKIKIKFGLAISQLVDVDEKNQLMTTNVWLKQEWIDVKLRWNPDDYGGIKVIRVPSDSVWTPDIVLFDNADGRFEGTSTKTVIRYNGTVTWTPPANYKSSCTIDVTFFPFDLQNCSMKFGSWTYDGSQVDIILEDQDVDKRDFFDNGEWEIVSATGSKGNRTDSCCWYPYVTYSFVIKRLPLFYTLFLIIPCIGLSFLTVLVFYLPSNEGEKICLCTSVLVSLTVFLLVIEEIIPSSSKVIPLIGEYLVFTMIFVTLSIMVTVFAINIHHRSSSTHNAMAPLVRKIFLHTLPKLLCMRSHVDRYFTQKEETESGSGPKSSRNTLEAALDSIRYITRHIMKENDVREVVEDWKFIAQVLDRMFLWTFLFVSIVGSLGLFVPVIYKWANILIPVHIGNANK
Protocol: as §2, §3, §4, §5
(§6) Recently, attention has been drawn to α5 as a member of a gene cluster associated with high risk for cancer and heavy smoking (Saccone et al., 2007). In the periphery, α5 is most likely expressed in association with the other members of its gene cluster, α3 and β4.

[5] = test system: α4(3)β2(2), α4(2)β2(3) and α7 nAChR; experiment: Baseline shifts / steady-state currents in the presence of bath-applied 3-pyr-Cyt, oocytes; assay type: cell-based, human; settings: bath application
Protocol: FIG. 2.8 is a summary of the effects of bath-applied 3-pyr-Cyt on α4(3)β2(2) and α4(2)β2(3) and α7 nAChR. Bath application experiments were conducted as described for cytisine, varenicline, and nicotine.
One such compound is 3-(pyridin-3′-yl)-cytisine (3-pyr-Cyt), an agent proposed to have very little likelihood of off-target α7 activity (Mineur et al., 2009).

[6] = target: T5, α4(3)β2(2) nAChR (Homo sapiens, UniProt P17787+P43681); experiment: Acute co-application of ACh and cytisine, model fit of peak current responses in oocytes; assay type: cell-based
T5 construct: expressed in transfected cells; host or cells: Xenopus laevis oocytes injected with cRNA
T5 sequence (P17787 26-502): as the sequence (P17787 26-502) above
T5 sequence (P43681 29-627 limits assumed): as the sequence (P43681 29-627 limits assumed) above
T5 sequence (P43681 29-627 limits assumed): as above
Description: FIG. 2.1 illustrates a model applied to the activation of nAChR by simultaneous co-applications of the full agonist “a” and a partial agonist “p”. […] The IMax of the full agonist is assigned a value of 1. The first and second terms of the equation represent the activation produced by the full agonist and partial agonists, respectively, scaled by their potencies and weighted by receptor availability. The third term allows noncompetitive effects of the partial agonist. If such noncompetitive activity is inhibitory, then ni is assigned a negative value.
Acute responses to agonist/partial agonist applications were fit with a general non-linear regression model, implemented as an option in a Windows data analyses and graphical presentation program (CAS Data Forge). The terms na, np, ni, Rmaxp, Inmaxp, EC50a, EC50p, and IC50p were given starting estimates based on the data obtained with the drugs applied separately. Tolerance factor (typically 1×10^−5) range limits for each parameter were specified. […] A predicted matrix was then calculated for each cell of the matrix, based on the a and p concentrations, the set of parameters listed above, and the governing equation. The residuals across all cells were calculated, and an iterative process was utilized to revise the parameters to minimize the residuals and allow the estimates to be revised accordingly. When the difference of estimates for any given parameter for consecutive iterations fell below the tolerance factor, that parameter was fixed at the last estimate. When all parameters were fixed or no convergent solution was found, the process stopped, and the set of parameters representing the best fit along with the resulting matrix was provided.
The Imax for the full agonist was constrained to 1 while the Imax for the partial agonist was a free parameter <1.0.
Curve fit values for the drugs when applied alone were used as seeds for the competitive interactions.

[7] = target: T6, α4β2α5 nAChR (Homo sapiens, UniProt P17787+P30532+P43681); experiment: Agonist activation of α4β2α5 receptors in oocytes; assay type: cell-based
T6 construct: expressed in transfected cells; host or cells: Xenopus laevis oocytes injected with cRNA
T6 sequence (P17787 26-502): as the sequence (P17787 26-502) above
T6 sequence (P43681 29-627 limits assumed): as the sequence (P43681 29-627 limits assumed) above
T6 sequence (P30532 23-468): as the sequence (P30532 23-468) above
Description: as §6

[8] = target: T4, α4(2)β2(2)α5 nAChR; experiment: Mecamylamine-sensitive steady-state activation during bath application, oocytes; assay type: cell-based; settings: bath concentration 1 μM
Description: (§7) In our bath application experiments we frequently saw small responses at the beginning of the bath applications, and sometimes there were significant shifts in baseline holding current that occurred over the long periods of recording. While increases in baseline current would be consistent with the stimulation of steady-state currents, baseline shifts can occur for other reasons as well, especially if the quality of the voltage clamp diminished over a long period of recording.
(§8) Even after just 30 minutes of continual bath application, a large shift in baseline was apparent. […] Table 3 provides a summary of the mecamylamine-sensitive steady-state currents measured for each of the drug-receptor combinations associated with drifting baselines.

[9] = target: T7, α4(2)β2(3) nAChR (Homo sapiens, UniProt P17787+P43681); experiment: as above; assay type: cell-based; settings: bath concentration 100 nM
T7 construct: expressed in transfected cells; host or cells: Xenopus laevis oocytes injected with cRNA
T7 sequence (P17787 26-502): as the sequence (P17787 26-502) above
T7 sequence (P43681 29-627 limits assumed): as the sequence (P43681 29-627 limits assumed) above
T7 sequence (P17787 26-502): as the sequence (P17787 26-502) above
Description: as §7, §8

[10] = target: T5, α4(3)β2(2) nAChR; experiment: as above; assay type: cell-based; settings: bath concentration 300 nM
Description: as §7, §8

[11] = test system: α4β2 receptors; settings: cited from earlier work
[12] = Mineur et al., 2009; cited from earlier work
[13] = target: human α7 receptors (Homo sapiens, UniProt P36544); settings: cited from earlier work
Sequence of human α7 receptors (P36544 23-502): as the sequence (P36544 23-502) above

[14] = preliminary findings of clinical trials, schizophrenics; cited from earlier work
[15] = Example 1, average of 30-40 min time points, 60 μM ACh, net charge, read-out: IC50, inhibition of ACh-evoked responses by prolonged bath application
[16] = IC50, inhibition of ACh-evoked responses by prolonged bath application
[17] = IC50 for the inhibition of ACh evoked responses by bath applications of agonists and partial agonists
[18] = noncompetitive inhibition factor
[19] = read-out: IC50, inhibition of ACh-evoked responses by prolonged bath application

For O=c1c(-c2cccnc2)ccc2n1C[C@@H]1CNC[C@H]2C1 [3-pyr-Cyt, 3-(pyridin-3′-yl)-cytisine], the “effect on ACh-evoked responses at low concentration” value ([1]; 30 nM in bath) was “partial inhibition”, the IC50 ([1]; Example 1, average of 30-40 min time points, 10 μM ACh, peak currents, read-out: IC50, inhibition of ACh-evoked responses by prolonged bath application) was 653 ± 500 nM and the IC50 ([1]; read-out: IC50 for the inhibition of ACh evoked responses by bath applications of agonists and partial agonists, Table 2, after 30±4 min bath application, 10 μM ACh) was 600 ± 500 nM. For the same compound, the IC50 ([2]; Example 1, average of 30-40 min time points, 30 μM ACh, peak currents, read-out: IC50, inhibition of ACh-evoked responses by prolonged bath application) was 5400 ± 4000 nM, the IC50 ([2]; read-out: IC50 for the inhibition of ACh evoked responses by bath applications of agonists and partial agonists, Table 2, after 30±4 min bath application, 30 μM ACh) was 16000 nM and the IC50 [3, 15] was 103000 ± 25000 nM. For the same compound, the “concentration at which significant inhibition of α7-mediated responses was achieved” value ([3]; highest concentration tested) was 100 µM, the IC50 ([4]; read-out: IC50 for the inhibition of ACh evoked responses by bath applications of agonists and partial agonists, Table 2, after 30±4 min bath application, 3 μM ACh) was 2300 nM and the “baseline shifts or steady-state currents” value [5] was “no baseline shifts or steady-state currents”.

In the case of O=c1cccc2n1C[C@@H]1CNC[C@H]2C1 [Cytisine, cytisine], the IC50 [1] is reported as 8 ± 5 nM, the IC50 [2, 16] is reported as 85 ± 44 nM and the IC50 [2, 17] is reported as 27 ± 14 nM. For the same compound, the IC50 [3, 16] was 300 ± 200 nM, the IC50 [3, 17] was 1200 nM and the IC50 [4] was 3.2 ± 1.6 nM. The “Activation n (Hill coefficient, best fit)” value [6] was 0.61, the “best fit IC50 relative to EC50” value [6] was “three-fold lower” and the “Inhibition Inmax of the partial agonist (best fit)” value [6, 18] was 0.7. For the same compound, the “Inhibition n (Hill coefficient, best fit)” value [6, 18] was 1.7, the IC50 ([6]; noncompetitive inhibition factor, read-out: Inhibition IC50 of the partial agonist (best fit)) was 32000 nM and the EC50 ([6]; peak current, read-out: Activation EC50 (best fit)) was 88000 nM. The “Activation Rmax (best fit)” value ([6]; relative to ACh maximum, ACh constrained to 1) was 0.35, the EC50 [7] was 18 ± 9 nM and the “efficacy for α4β2α5 receptors, % that of ACh” value [7] was 6±1%. For the same compound, the “Mecamylamine-sensitive steady-state activation relative to ACh maximum evoked transient responses” value [8] was 2.5 ± 0.5%, the “Mecamylamine-sensitive steady-state activation relative to ACh maximum evoked transient responses” value [9] was 1.4 ± 0.1% and the “Mecamylamine-sensitive steady-state activation relative to ACh maximum evoked transient responses” value [10] was 1.1 ± 0.2%. For the same compound, the “efficacy for α4β2 receptors, % that of ACh” value [11] was < 20% and the “potency at reducing immobility compared with mecamylamine” value [12] was “equipotent as the pure antagonist mecamylamine”.

COc1ccc(/C=C2\CCCN=C2c2cccnc2)c(OC)c1 [GTS-21, 3-(2,4-dimethoxybenzylidene)anabaseine] showed an IC50 [1, 19] of 170 ± 100 nM, an IC50 [2, 19] of 1000 ± 400 nM and an IC50 [3] of 1300 nM. For the same compound, the IC50 [3, 15] was 1200 ± 400 nM, the “α7 ACh-evoked responses above the baseline controls” value ([3]; bath application of 30 nM) was 37±15% and the “bath concentrations at which α7 ACh-evoked responses were inhibited” value ([3]; long-term bath application, net charge) was “greater than 300 nM”. The EC50 ([13]; Papke and Papke, 2002, read-out: EC50 for transient receptor activation) was ~6000 nM, the “efficacy for human α7 receptors, % that of ACh” value [13] was “about 20%” and the “clinical ratings of negative symptoms” value [14] was “improved clinical ratings of negative symptoms”.

For CN1CCCC1c1cccnc1 (stereo not drawn) [Nicotine, nicotine], the “efficacy for α4β2α5 receptors, % that of ACh” value [7] was “approximately 35%”.
